This passage reports mutagenic call results from PubChem BioAssay AID1259407 (Chemical Carcinogenesis Research Information System (CCRIS), 2018).

The data set concerns CCRIS mutagenicity, Ames/micronucleus/aberration tests. Kind of data set: CCRIS mutagenicity studies.
The mark [1] stands for this setting: Test System: AMES SALMONELLA TYPHIMURIUM, Strain/Indicator: TA98, Metabolic Activation: NONE, Method: PREINCUBATION
The mark [2] stands for this setting: Test System: AMES SALMONELLA TYPHIMURIUM, Strain/Indicator: TA100, Metabolic Activation: NONE, Method: PREINCUBATION
[3] abbreviates: Test System: AMES SALMONELLA TYPHIMURIUM, Strain/Indicator: TA1537, Metabolic Activation: NONE, Method: PREINCUBATION

Active and inactive are the calls of the source. How the calls were made is not given here.

As to `CC[C@H]1CN2CCc3cc(OC)c(OC)cc3[C@@H]2C[C@@H]1C[C@H]1NCCc2cc(OC)c(OC)cc21`, the mutagenic call was “inactive; negative” (Test System: AMES SALMONELLA TYPHIMURIUM, Strain/Indicator: TA98, Metabolic Activation: HAMSTER, LIVER, S-9, AROCLOR 1254 (10%), Method: PREINCUBATION); “inactive; negative” under setting [1]; “inactive; negative” (Test System: AMES SALMONELLA TYPHIMURIUM, Strain/Indicator: TA98, Metabolic Activation: RAT, LIVER, S-9, AROCLOR 1254 (10%), Method: PREINCUBATION); “inactive; negative” (Test System: AMES SALMONELLA TYPHIMURIUM, Strain/Indicator: TA100, Metabolic Activation: HAMSTER, LIVER, S-9, AROCLOR 1254 (10%), Method: PREINCUBATION); “inactive; negative” under setting [2]; “inactive; negative” (Test System: AMES SALMONELLA TYPHIMURIUM, Strain/Indicator: TA100, Metabolic Activation: RAT, LIVER, S-9, AROCLOR 1254 (10%), Method: PREINCUBATION). Further, the mutagenic call is “inactive; negative” (Test System: AMES SALMONELLA TYPHIMURIUM, Strain/Indicator: TA1535, Metabolic Activation: HAMSTER, LIVER, S-9, AROCLOR 1254 (10%), Method: PREINCUBATION); “inactive; negative” (Test System: AMES SALMONELLA TYPHIMURIUM, Strain/Indicator: TA1535, Metabolic Activation: NONE, Method: PREINCUBATION); “inactive; negative” (Test System: AMES SALMONELLA TYPHIMURIUM, Strain/Indicator: TA1535, Metabolic Activation: RAT, LIVER, S-9, AROCLOR 1254 (10%), Method: PREINCUBATION); “inactive; negative” (Test System: AMES SALMONELLA TYPHIMURIUM, Strain/Indicator: TA1537, Metabolic Activation: HAMSTER, LIVER, S-9, AROCLOR 1254 (10%), Method: PREINCUBATION); “inactive; negative” under setting [3]; “inactive; negative” (Test System: AMES SALMONELLA TYPHIMURIUM, Strain/Indicator: TA1537, Metabolic Activation: RAT, LIVER, S-9, AROCLOR 1254 (10%), Method: PREINCUBATION).
In the case of `CC(=O)Nc1nc(-c2ccc([N+](=O)[O-])o2)cs1`, the mutagenic call (Test System: AMES SALMONELLA TYPHIMURIUM, Strain/Indicator: TA100, Metabolic Activation: RAT, LIVER, S-9, KC500 OR PHENOBARBITAL, Method: LIQUID SUSPENSION) was “active; positive” and the mutagenic call (Test System: E. COLI WP2, Strain/Indicator: WP2, Metabolic Activation: NONE, Method: SPOT) was “active; positive”.
Take `COc1cc(NC(C)CCCN)c2ncccc2c1` (configuration not stated): the mutagenic call (Test System: AMES SALMONELLA TYPHIMURIUM, Strain/Indicator: TA97, Metabolic Activation: NONE, Method: PREINCUBATION) was “active; positive”; the mutagenic call (Test System: AMES SALMONELLA TYPHIMURIUM, Strain/Indicator: TA97, Metabolic Activation: RAT, LIVER, S-9, PHENOBARBITAL AND BETA-NAPHTHOFLAVONE, Method: PREINCUBATION) was “active; positive”; the mutagenic call (Test System: AMES SALMONELLA TYPHIMURIUM, Strain/Indicator: TA97A, Metabolic Activation: NONE, Method: STANDARD PLATE) is “inactive; negative”; the mutagenic call (Test System: AMES SALMONELLA TYPHIMURIUM, Strain/Indicator: TA97A, Metabolic Activation: RAT LIVER S-9, PHENOBARBITAL, Method: STANDARD PLATE) was “inactive; negative”; the mutagenic call under setting [1] is “inactive; negative”; the mutagenic call (Test System: AMES SALMONELLA TYPHIMURIUM, Strain/Indicator: TA98, Metabolic Activation: NONE, Method: STANDARD PLATE) is “active; positive”. Besides, the mutagenic call reads like this: (Test System: AMES SALMONELLA TYPHIMURIUM, Strain/Indicator: TA98, Metabolic Activation: RAT, LIVER, S-9, AROCLOR 1254 OR PHENOBARBITOL, Method: STANDARD PLATE) “active; positive”; (Test System: AMES SALMONELLA TYPHIMURIUM, Strain/Indicator: TA98, Metabolic Activation: RAT, LIVER, S-9, PHENOBARBITAL AND BETA-NAPHTHOFLAVONE, Method: PREINCUBATION) “inactive; negative”; (Test System: AMES SALMONELLA TYPHIMURIUM, Strain/Indicator: TA98, Metabolic Activation: RAT, LIVER, S-9, Method: PREINCUBATION) “inactive; negative”; under setting [2], “inactive; negative”; (Test System: AMES SALMONELLA TYPHIMURIUM, Strain/Indicator: TA100, Metabolic Activation: RAT LIVER S-9, PHENOBARBITAL, Method: STANDARD PLATE) “inactive; negative”; (Test System: AMES SALMONELLA TYPHIMURIUM, Strain/Indicator: TA100, Metabolic Activation: RAT, LIVER, S-9, AROCLOR 1254 OR PHENOBARBITOL, Method: STANDARD PLATE) “active; positive”. The mutagenic call is “inactive; negative” (Test System: AMES SALMONELLA TYPHIMURIUM, Strain/Indicator: TA100, Metabolic Activation: RAT, LIVER, S-9, PHENOBARBITAL AND BETA-NAPHTHOFLAVONE, Method: PREINCUBATION); “inactive; negative” (Test System: AMES SALMONELLA TYPHIMURIUM, Strain/Indicator: TA100, Metabolic Activation: RAT, LIVER, S-9, Method: PREINCUBATION); “inactive; negative” (Test System: AMES SALMONELLA TYPHIMURIUM, Strain/Indicator: TA102, Metabolic Activation: NONE, Method: PREINCUBATION); “inactive; negative” (Test System: AMES SALMONELLA TYPHIMURIUM, Strain/Indicator: TA102, Metabolic Activation: NONE, Method: STANDARD PLATE); “inactive; negative” (Test System: AMES SALMONELLA TYPHIMURIUM, Strain/Indicator: TA102, Metabolic Activation: RAT LIVER S-9, PHENOBARBITAL, Method: STANDARD PLATE); “inactive; negative” (Test System: AMES SALMONELLA TYPHIMURIUM, Strain/Indicator: TA102, Metabolic Activation: RAT, LIVER, S-9, PHENOBARBITAL AND BETA-NAPHTHOFLAVONE, Method: PREINCUBATION). Moreover, the mutagenic call is “inactive; negative” (Test System: AMES SALMONELLA TYPHIMURIUM, Strain/Indicator: TA104, Metabolic Activation: NONE, Method: STANDARD PLATE); “inactive; negative” (Test System: AMES SALMONELLA TYPHIMURIUM, Strain/Indicator: TA104, Metabolic Activation: RAT LIVER S-9, PHENOBARBITAL, Method: STANDARD PLATE); “inactive; negative” (Test System: AMES SALMONELLA TYPHIMURIUM, Strain/Indicator: TA1535, Metabolic Activation: NONE, Method: STANDARD PLATE); “inactive; negative” (Test System: AMES SALMONELLA TYPHIMURIUM, Strain/Indicator: TA1535, Metabolic Activation: RAT, LIVER, S-9, AROCLOR 1254 OR PHENOBARBITOL, Method: STANDARD PLATE); “active; positive” under setting [3]; “inactive; negative” (Test System: AMES SALMONELLA TYPHIMURIUM, Strain/Indicator: TA1537, Metabolic Activation: NONE, Method: STANDARD PLATE). For the same compound, the mutagenic call by setting is: (Test System: AMES SALMONELLA TYPHIMURIUM, Strain/Indicator: TA1537, Metabolic Activation: RAT, LIVER, S-9, AROCLOR 1254, Method: PREINCUBATION) “active; positive”; (Test System: AMES SALMONELLA TYPHIMURIUM, Strain/Indicator: TA1537, Metabolic Activation: RAT, LIVER, S-9, AROCLOR 1254, Method: STANDARD PLATE) “active; positive”; (Test System: AMES SALMONELLA TYPHIMURIUM, Strain/Indicator: TA1537, Metabolic Activation: RAT, LIVER, S-9, AROCLOR 1254 OR PHENOBARBITOL, Method: STANDARD PLATE) “inactive; negative”; (Test System: AMES SALMONELLA TYPHIMURIUM, Strain/Indicator: TA1538, Metabolic Activation: NONE, Method: STANDARD PLATE) “inactive; negative”; (Test System: AMES SALMONELLA TYPHIMURIUM, Strain/Indicator: TA1538, Metabolic Activation: RAT, LIVER, S-9, AROCLOR 1254 OR PHENOBARBITOL, Method: STANDARD PLATE) “inactive; negative”; (Test System: E.COLI, Strain/Indicator: WP2UVRA/PKM101, Metabolic Activation: NONE, Method: PREINCUBATION) “inactive; negative”. The mutagenic call (Test System: E.COLI, Strain/Indicator: WP2UVRA/PKM101, Metabolic Activation: RAT LIVER S-9, PHENOBARBITAL AND 5,6-BENZOFLAVONE, Method: PREINCUBATION) was “inactive; negative”.
Take `O[C@@H]1C=Cc2c(cc3ccc4cccc5c6ccccc6c2c3c45)[C@H]1O`: the mutagenic call reads like this: (Test System: CHINESE HAMSTER V-79, Strain/Indicator: V-79 (HPRT)/6-THIOGUANINE, Metabolic Activation: HUMAN MAMMARY CARCINOMA MCF-7 CELLS) “active; positive”; (Test System: CHINESE HAMSTER V-79, Strain/Indicator: V-79, Metabolic Activation: RAT, LIVER, S-9, AROCLOR 1254) “active; positive”.
